Experimental data taken from patent US20130040952A1 (priority 2011, published 2013).

Columns and labels:
Assay type in all cases: cell-based, recombinant influenza virus in WSN background
[1] = tested on: nucleozin-resistant rWSN virus (Y289H mutation at NP)
[2] = tested on: compound 3061-resistant rWSN virus (Y52H mutation at NP)
[3] = tested on: Y52H/Y289H double mutation rWSN virus; details: read-out: Anti-rWSN IC50 (μM), NP Y52H/Y289H

O=C(NCCCN1CCOCC1)c1csc(Nc2ccc(Cl)c(Cl)c2)n1 [compound 1]
inhibition of nucleozin-resistant strain [1]: capable of inhibiting | IC50 ([1]; read-out: Anti-rWSN IC50 (μM), NP Y289H): 4 µM | inhibition of 3061-resistant strain [2]: capable of inhibiting | IC50 ([2]; read-out: Anti-rWSN IC50 (μM), NP Y52H): 3.2 µM | IC50 [3]: 1.8 µM
